From article PMC2923778 (Journal of Molecular Biology, 2010)

Biological target: T1, hSPSB1 (Homo sapiens, UniProt Q96BD6)
T1 construct: hexahistidine (N, cleaved yes); made in house; host or cells: E. coli BL21(DE3)-R3-pRARE2
T1 sequence (Q96BD6 24-233): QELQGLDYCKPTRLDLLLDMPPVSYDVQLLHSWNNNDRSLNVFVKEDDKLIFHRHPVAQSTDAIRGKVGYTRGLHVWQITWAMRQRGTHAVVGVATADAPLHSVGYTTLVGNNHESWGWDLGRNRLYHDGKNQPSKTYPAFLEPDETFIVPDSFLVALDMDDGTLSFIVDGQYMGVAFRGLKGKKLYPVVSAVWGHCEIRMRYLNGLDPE
Experiment: ITC of peptides with hSPSB1
Settings: 20 °C, 50 mM Hepes pH 7.4, 150 mM NaCl, 1 mM DTT, 100 μM peptide into 10 μM protein, ± error of curve fit, single binding site model
Experimental: Human SPSB constructs lacking the SOCS box region [hSPSB1(24–233), SWISS-PROT accession number Q96BD6; hSPSB2(26–219), Q99619 and hSPSB4(28–233), Q96A44] were cloned into pNIC28-Bsa4 by ligation-independent cloning. Constructs were transformed into BL21(DE3)-R3-pRARE2 and expressed overnight at 18 °C with 0.5 mM IPTG added at OD600 = 0.5–0.8. hSPSB proteins were purified using Ni-Sepharose (GE Healthcare, UK), eluted by imidazole and subsequently cleaved from the N-terminal hexahistidine tag by addition of tobacco etch virus protease (although hSPSB2 was resistant to cleavage). Further purification was achieved by size-exclusion chromatography and finally anion-exchange chromatography in the case of hSPSB1.
ITC measurements on mSPSB proteins were performed at 22 °C using a MicroCalorimetry System (MicroCal, Northhampton, MA). mSPSB1, mSPSB2, and mSPSB4 were prepared by dialyzing against 20 mM Tris, 150 mM sodium chloride, and 2.5 mM calcium chloride at pH 8.0. […] Dilution enthalpies were determined separately by titrating peptide into buffer and used to correct the enthalpies of the binding of protein and peptide. Data were analyzed using a single binding site model implemented in the Origin software package provided with the instrument.

**Q.** For `CC[C@H](C)[C@H](NC(=O)[C@H](Cc1ccc(O)cc1)NC(=O)[C@H](Cc1ccccc1)NC(=O)[C@H](CCC(=O)O)NC(=O)[C@H](CCCNC(=N)N)NC(=O)[C@H](CCCCN)NC(=O)[C@H](CCCNC(=N)N)NC(=O)[C@H](CCC(=O)O)NC(=O)[C@@H](NC(=O)[C@H](CC(=O)O)NC(=O)[C@H](CCC(=O)O)NC(=O)[C@@H](NC(=O)[C@@H](NC(=O)[C@H](CC(N)=O)NC(=O)[C@H](CC(N)=O)NC(=O)[C@H](CC(N)=O)NC(=O)[C@H](CC(N)=O)NC(=O)[C@H](CC(N)=O)NC(=O)[C@@H](NC(=O)[C@@H](N)CC(=O)O)[C@@H](C)CC)[C@@H](C)CC)C(C)C)C(C)C)C(=O)O` [VASA], which Kd is on record?
**A.** 40 ± 5 nM
